Experimental data published in ChEMBL document CHEMBL3585342, “Exploring the isoform selectivity of TGX-221 related pyrido[1,2-a]pyrimidinone-based Class IA PI 3-kinase inhibitors: synthesis, biological evaluation and molecular modelling” (Bioorg Med Chem, 2015).

Key:
[1] = target: Phosphatidylinositol 4,5-bisphosphate 3-kinase catalytic subunit beta isoform (Homo sapiens, UniProt P42338); assay type: cell-based, Sf9
Description: Inhibition of N-terminal His-tagged human p110beta expressed in Sf9 cells co-expressing p85alpha regulatory subunit using phosphatidylinositol substrate and [gamma-33P]-ATP by basic thin layer chromatography technique based lipid kinase assay

[2] = Inhibition of cell proliferation of human NZB5 cells containing wild-type p110alpha gene incubated for 5 days by [3H]thymidine incorporation assay; assay type: functional, cell-based
[3] = Inhibition of cell proliferation of human NZOV9 cells containing wild-type p53 protein and p110alpha Y1021C mutant incubated for 5 days by [3H]thymidine incorporation assay; assay type: functional, cell-based
[4] = target: Phosphatidylinositol 4,5-bisphosphate 3-kinase catalytic subunit alpha isoform (Homo sapiens, UniProt P42336); assay type: cell-based, Sf9
Description: Inhibition of N-terminal His-tagged human p110alpha expressed in Sf9 cells co-expressing p85alpha regulatory subunit using phosphatidylinositol substrate and [gamma-33P]-ATP by basic thin layer chromatography technique based lipid kinase assay

[5] = target: T1, Phosphatidylinositol 4,5-bisphosphate 3-kinase catalytic subunit delta isoform (Homo sapiens, UniProt O00329); assay type: cell-based, Sf9
T1 sequence (O00329 whole entry): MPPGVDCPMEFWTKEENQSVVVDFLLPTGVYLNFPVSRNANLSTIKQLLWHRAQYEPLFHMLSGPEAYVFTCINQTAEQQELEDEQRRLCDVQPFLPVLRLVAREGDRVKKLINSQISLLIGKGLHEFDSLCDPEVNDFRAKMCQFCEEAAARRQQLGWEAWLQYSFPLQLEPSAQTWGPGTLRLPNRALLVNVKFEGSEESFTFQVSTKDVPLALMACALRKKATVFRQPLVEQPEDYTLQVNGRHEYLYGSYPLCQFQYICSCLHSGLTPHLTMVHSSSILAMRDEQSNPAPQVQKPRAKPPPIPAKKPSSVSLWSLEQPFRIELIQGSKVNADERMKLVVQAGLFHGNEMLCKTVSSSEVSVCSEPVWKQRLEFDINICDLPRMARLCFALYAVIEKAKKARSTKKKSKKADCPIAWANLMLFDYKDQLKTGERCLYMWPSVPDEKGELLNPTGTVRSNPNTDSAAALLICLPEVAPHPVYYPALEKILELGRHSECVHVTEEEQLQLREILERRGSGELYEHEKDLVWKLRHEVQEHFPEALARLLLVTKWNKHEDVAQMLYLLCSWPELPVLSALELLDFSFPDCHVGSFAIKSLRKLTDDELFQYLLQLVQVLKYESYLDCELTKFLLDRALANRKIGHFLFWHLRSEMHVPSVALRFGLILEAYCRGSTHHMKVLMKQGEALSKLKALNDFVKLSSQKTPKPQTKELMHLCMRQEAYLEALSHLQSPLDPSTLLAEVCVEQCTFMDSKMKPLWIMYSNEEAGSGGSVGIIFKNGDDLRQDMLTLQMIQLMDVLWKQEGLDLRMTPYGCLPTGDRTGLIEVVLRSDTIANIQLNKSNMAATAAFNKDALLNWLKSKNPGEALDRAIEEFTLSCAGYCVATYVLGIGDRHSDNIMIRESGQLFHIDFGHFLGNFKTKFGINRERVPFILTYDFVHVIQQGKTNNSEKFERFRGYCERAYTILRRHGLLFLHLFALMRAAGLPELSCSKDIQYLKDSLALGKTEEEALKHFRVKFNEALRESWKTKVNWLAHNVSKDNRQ
Description: Inhibition of N-terminal His-tagged human p110delta expressed in Sf9 cells co-expressing p85alpha regulatory subunit using phosphatidylinositol substrate and [gamma-33P]-ATP by basic thin layer chromatography technique based lipid kinase assay

Sequence of Phosphatidylinositol 4,5-bisphosphate 3-kinase catalytic subunit beta isoform (P42338 whole entry, canonical isoform): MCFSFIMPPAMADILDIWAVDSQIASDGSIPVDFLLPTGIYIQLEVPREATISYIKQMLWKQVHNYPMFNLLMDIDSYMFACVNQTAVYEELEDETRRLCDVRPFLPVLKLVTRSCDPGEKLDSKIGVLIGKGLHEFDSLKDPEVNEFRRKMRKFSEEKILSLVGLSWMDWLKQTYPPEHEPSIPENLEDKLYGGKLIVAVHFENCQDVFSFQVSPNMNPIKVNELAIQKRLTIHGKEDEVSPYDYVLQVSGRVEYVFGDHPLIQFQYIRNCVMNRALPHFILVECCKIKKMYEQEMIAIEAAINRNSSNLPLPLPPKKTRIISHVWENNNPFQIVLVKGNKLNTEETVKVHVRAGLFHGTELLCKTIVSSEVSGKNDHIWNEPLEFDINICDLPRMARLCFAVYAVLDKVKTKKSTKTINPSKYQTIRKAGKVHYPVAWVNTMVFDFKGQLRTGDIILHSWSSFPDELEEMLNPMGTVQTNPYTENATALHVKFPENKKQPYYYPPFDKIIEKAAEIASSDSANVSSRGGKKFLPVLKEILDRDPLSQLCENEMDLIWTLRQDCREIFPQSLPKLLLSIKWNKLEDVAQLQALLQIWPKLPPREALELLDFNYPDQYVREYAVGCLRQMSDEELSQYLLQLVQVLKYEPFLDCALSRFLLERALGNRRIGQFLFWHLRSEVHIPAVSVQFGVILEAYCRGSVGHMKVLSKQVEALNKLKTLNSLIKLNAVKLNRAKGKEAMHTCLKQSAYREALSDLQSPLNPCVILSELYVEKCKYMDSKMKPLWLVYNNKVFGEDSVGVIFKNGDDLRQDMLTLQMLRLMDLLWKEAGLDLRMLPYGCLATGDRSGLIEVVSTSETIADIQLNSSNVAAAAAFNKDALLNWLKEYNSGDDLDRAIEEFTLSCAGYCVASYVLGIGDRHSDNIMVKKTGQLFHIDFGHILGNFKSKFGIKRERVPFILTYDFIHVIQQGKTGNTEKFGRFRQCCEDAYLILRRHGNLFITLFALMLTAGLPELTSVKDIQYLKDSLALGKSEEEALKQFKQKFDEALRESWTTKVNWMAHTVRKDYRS
Sequence of Phosphatidylinositol 4,5-bisphosphate 3-kinase catalytic subunit alpha isoform (P42336 whole entry, canonical isoform): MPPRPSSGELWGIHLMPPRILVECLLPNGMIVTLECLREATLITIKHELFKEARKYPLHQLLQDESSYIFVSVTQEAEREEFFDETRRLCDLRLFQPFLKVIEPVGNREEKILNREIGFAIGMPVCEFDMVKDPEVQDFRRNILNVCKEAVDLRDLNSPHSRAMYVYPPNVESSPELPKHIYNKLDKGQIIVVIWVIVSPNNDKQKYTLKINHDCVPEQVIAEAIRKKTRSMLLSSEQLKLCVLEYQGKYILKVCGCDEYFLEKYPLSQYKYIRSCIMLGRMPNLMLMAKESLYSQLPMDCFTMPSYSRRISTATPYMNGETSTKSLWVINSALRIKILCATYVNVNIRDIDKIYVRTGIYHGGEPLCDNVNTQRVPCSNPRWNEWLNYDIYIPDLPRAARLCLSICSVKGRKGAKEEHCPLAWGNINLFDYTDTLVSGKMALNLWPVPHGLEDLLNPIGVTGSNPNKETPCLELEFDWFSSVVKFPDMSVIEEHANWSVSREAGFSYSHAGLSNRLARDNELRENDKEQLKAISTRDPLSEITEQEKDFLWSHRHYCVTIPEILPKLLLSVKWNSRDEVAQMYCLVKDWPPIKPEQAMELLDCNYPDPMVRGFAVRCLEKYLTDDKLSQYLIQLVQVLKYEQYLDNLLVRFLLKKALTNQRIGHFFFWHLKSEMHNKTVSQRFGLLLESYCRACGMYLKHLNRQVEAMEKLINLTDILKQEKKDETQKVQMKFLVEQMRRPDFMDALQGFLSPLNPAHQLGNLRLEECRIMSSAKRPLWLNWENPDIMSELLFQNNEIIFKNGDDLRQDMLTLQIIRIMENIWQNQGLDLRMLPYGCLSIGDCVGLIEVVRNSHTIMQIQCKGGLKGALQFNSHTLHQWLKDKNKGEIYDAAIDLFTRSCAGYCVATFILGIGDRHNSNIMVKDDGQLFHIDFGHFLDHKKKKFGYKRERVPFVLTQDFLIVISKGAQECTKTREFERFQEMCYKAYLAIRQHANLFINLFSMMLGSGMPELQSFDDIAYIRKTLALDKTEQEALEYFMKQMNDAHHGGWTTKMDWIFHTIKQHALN

Row | IC50 [1] | IC50 [4] | IC50 [5] | Structure (SMILES) | IC50 [2] | IC50 [3]
1 | 20 nM |  |  | Cc1cc(NCc2ccccc2C)c2nc(N3CCOCC3)cc(=O)n2c1 | 1500 nM | 5000 nM
2 | 4800 nM | > 10000 nM | > 10000 nM | O=c1cc(N2CCOCC2)nc2c(CS(=O)(=O)c3ccccc3)cccn12 | > 20000 nM | > 20000 nM
3 | 30 nM | 1100 nM | 470 nM | O=c1cc(N2CCOCC2)nc2c(CNc3ccccc3)cccn12 |  | 
4 | 30 nM | 790 nM | 270 nM | CN(Cc1cccn2c(=O)cc(N3CCOCC3)nc12)c1ccccc1 | 12000 nM | 10000 nM
5 | 20 nM | 1800 nM | 470 nM | Cc1ccccc1NCc1cccn2c(=O)cc(N3CCOCC3)nc12 |  | 
6 | 240 nM | 1100 nM | 810 nM | Cc1cccc(NCc2cccn3c(=O)cc(N4CCOCC4)nc23)c1 | 3000 nM | 
7 | 4600 nM | 6800 nM | 710 nM | Cc1ccc(NCc2cccn3c(=O)cc(N4CCOCC4)nc23)cc1 | 5500 nM | 5800 nM
8 | 310 nM | 3100 nM | 1100 nM | O=c1cc(N2CCOCC2)nc2c(CNc3ccc(Cl)cc3)cccn12 | > 20000 nM | 15000 nM
9 | 2100 nM | 350 nM | 240 nM | COc1ccc(NCc2cccn3c(=O)cc(N4CCOCC4)nc23)cc1 | 340 nM | 9600 nM
10 | 7400 nM | 6500 nM | 600 nM | Cc1ccc(S(=O)(=O)NCc2cccn3c(=O)cc(N4CCOCC4)nc23)cc1 | 18000 nM | > 20000 nM
11 | 570 nM | 1500 nM | 570 nM | O=c1cc(N2CCOCC2)nc2c(CSc3ccccc3)cccn12 | 7800 nM | 6300 nM
12 | 230 nM | 1500 nM | 470 nM | O=c1cc(N2CCOCC2)nc2c(COc3ccccc3)cccn12 | 17000 nM | 11000 nM
13 | 1000 nM | 2500 nM | 550 nM | Cc1ccc(OCc2cccn3c(=O)cc(N4CCOCC4)nc23)cc1 | 13000 nM | 8200 nM
14 | 1400 nM | 1600 nM | 460 nM | COc1ccc(OCc2cccn3c(=O)cc(N4CCOCC4)nc23)cc1 | 13000 nM | 14000 nM
15 | 1000 nM | > 10000 nM | 1500 nM | N#Cc1ccc(OCc2cccn3c(=O)cc(N4CCOCC4)nc23)cc1 | > 20000 nM | 18000 nM
16 | 450 nM | 1700 nM | 410 nM | Cc1cc(Nc2ccccc2)c2nc(N3CCOCC3)cc(=O)n2c1 | 1200 nM | 3000 nM
17 | 670 nM | 4400 nM | 900 nM | Cc1cc(N(C)c2ccccc2)c2nc(N3CCOCC3)cc(=O)n2c1 | 2000 nM | 5000 nM
18 | 1100 nM | 1500 nM | 310 nM | Cc1cc(Nc2ccccc2C)c2nc(N3CCOCC3)cc(=O)n2c1 |  | 2200 nM
19 | 1200 nM | > 1000 nM | 470 nM | Cc1cccc(Nc2cc(C)cn3c(=O)cc(N4CCOCC4)nc23)c1 | 900 nM | 600 nM
20 | 3200 nM | 2900 nM | 1000 nM | Cc1ccc(Nc2cc(C)cn3c(=O)cc(N4CCOCC4)nc23)cc1 | 1000 nM | 1600 nM
21 | 2100 nM | 3900 nM | 500 nM | Cc1cc(Nc2c(C)cccc2C)c2nc(N3CCOCC3)cc(=O)n2c1 | 1500 nM | 1300 nM
22 | 150 nM | 500 nM | 230 nM | Cc1cc(NCc2ccccc2)c2nc(N3CCOCC3)cc(=O)n2c1 | 100 nM | 500 nM
23 | 130 nM | 400 nM | 200 nM | Cc1cccc(CNc2cc(C)cn3c(=O)cc(N4CCOCC4)nc23)c1 | 400 nM | 1300 nM

Row | IC50 [1] | IC50 [4] | IC50 [5] | Structure (SMILES) | IC50 [2] | IC50 [3]
24 | 1800 nM | 900 nM | 640 nM | Cc1ccc(CNc2cc(C)cn3c(=O)cc(N4CCOCC4)nc23)cc1 | 400 nM | > 20000 nM
25 | 420 nM | 2000 nM | 800 nM | Cc1cc(NCc2ccccn2)c2nc(N3CCOCC3)cc(=O)n2c1 | 2400 nM | 7000 nM
26 | 590 nM | > 10000 nM | 450 nM | Cc1cc(NCc2cccnc2)c2nc(N3CCOCC3)cc(=O)n2c1 | 8200 nM | 7900 nM
27 | 4200 nM | 4900 nM | 710 nM | Cc1cc(NCc2ccncc2)c2nc(N3CCOCC3)cc(=O)n2c1 | 14000 nM | 14000 nM
28 | 210 nM | 2200 nM | 270 nM | Cc1cc(N[C@@H](C)c2ccccc2)c2nc(N3CCOCC3)cc(=O)n2c1 | 700 nM | 600 nM
29 | 2300 nM | 2700 nM | 800 nM | Cc1cc(N[C@H](C)c2ccccc2)c2nc(N3CCOCC3)cc(=O)n2c1 | 700 nM | 800 nM
30 | 3600 nM | 490 nM | 150 nM | O=C(Nc1ccccc1)c1cccn2c(=O)cc(N3CCOCC3)nc12 | 2000 nM | 7000 nM
31 | 1500 nM | 1800 nM | 530 nM | Cc1ccccc1NC(=O)c1cccn2c(=O)cc(N3CCOCC3)nc12 | > 20000 nM | 11000 nM
32 | 3900 nM | 850 nM | 300 nM | Cc1cccc(NC(=O)c2cccn3c(=O)cc(N4CCOCC4)nc23)c1 | 8000 nM | 2800 nM
33 | > 10000 nM | 1200 nM | 140 nM | Cc1ccc(NC(=O)c2cccn3c(=O)cc(N4CCOCC4)nc23)cc1 | > 20000 nM | > 20000 nM
34 | > 10000 nM | 4800 nM | > 10000 nM | O=C(NCc1ccccn1)c1cccn2c(=O)cc(N3CCOCC3)nc12 | 20000 nM | > 20000 nM
35 | > 10000 nM | 6500 nM | > 10000 nM | O=C(NCc1cccnc1)c1cccn2c(=O)cc(N3CCOCC3)nc12 | 18000 nM | > 20000 nM
36 | > 10000 nM | 6400 nM | > 10000 nM | O=C(NCc1ccncc1)c1cccn2c(=O)cc(N3CCOCC3)nc12 | 12000 nM | > 20000 nM
37 | 1800 nM | 510 nM | 220 nM | O=C(Nc1cccn2c(=O)cc(N3CCOCC3)nc12)c1ccccc1 | 10000 nM | 2500 nM
38 | 2400 nM | 810 nM | 270 nM | Cc1ccccc1C(=O)Nc1cccn2c(=O)cc(N3CCOCC3)nc12 | 5500 nM | 800 nM
39 | 1800 nM | 570 nM | 470 nM | Cc1cccc(C(=O)Nc2cccn3c(=O)cc(N4CCOCC4)nc23)c1 | 6000 nM | 800 nM
40 | 1900 nM | 1360 nM | 30 nM | Cc1ccc(C(=O)Nc2cccn3c(=O)cc(N4CCOCC4)nc23)cc1 | 900 nM | 800 nM
41 | > 10000 nM | > 10000 nM | 1700 nM | O=c1cc(N2CCOCC2)nc2c(NS(=O)(=O)c3ccccc3)cccn12 | 6000 nM | 500 nM
42 | 630 nM | 600 nM | 480 nM | O=C(Nc1ccccc1)Nc1cccn2c(=O)cc(N3CCOCC3)nc12 | 7200 nM | 2900 nM
43 | 9100 nM | 9000 nM | 1800 nM | O=C(Nc1cccn2c(=O)cc(N3CCOCC3)nc12)Oc1ccccc1 | 7000 nM | 2500 nM
44 |  | 1000 nM | 140 nM | Cc1cc(C(C)Nc2ccccc2)c2nc(N3CCOCC3)cc(=O)n2c1 (racemic) | 2800 nM | 1200 nM
45 | 20 nM | 1500 nM | 220 nM | Cc1cc(C(C)N(C)c2ccccc2)c2nc(N3CCOCC3)cc(=O)n2c1 (racemic) |  | 
